Experimental data as given in US7410974B2, “Halogenated Quinazolinyl nitrofurans as antibacterial agents” (Ulysses Pharmaceutical Products, Inc., priority 2003, dated 2008).
Values after ≈ are worked out from the molar mass of the structure shown. Where two headings read alike, the source gives them in different places.

What was measured:
[1] = tested on: S. saprophyticus ATCC 15305; experiment: MIC broth microdilution (NCCLS); type: cell-based, Staphylococcus saprophyticus
Procedure: (§1) Minimal Inhibitory Concentration (MIC) Determination. Bacteria (primary strain panel, TABLE 1). Susceptibility tests were performed following the recommendations from the National Committee for Clinical Standards (NCCLS). The MICs were determined by a broth microdilution technique using a final volume of 100 μl of cation-adjusted Mueller Hinton Broth (MHBCA) and a bacterial inoculum of 10^5-10^6 Colony Forming Units (CFU)/ml. The inocula were verified and precisely determined by applying 10-μl drops of 10-fold dilutions onto Triptic Soy Agar plates. The CFU were counted after an incubation of 24 h at 35° C. Any experiment showing an inoculum that was more or less than 10^5-10^6 CFU/ml was rejected. Control antibiotics and test compounds were prepared at a concentration equivalent to 2-fold the highest desired final concentration. Compounds were then diluted directly in the 96-well microtiter plates by serial 2-fold dilutions using a multichannel pipette. Microtiter plates were incubated during 24 h at 35° C. and growth was recorded by using a microtiterplate reader at 650 nm as well as by visual observation. The MIC was defined as the lowest concentration of compound yielding no visible growth. […] Fastidious bacteria. The medium used for Listeria monocytogenes, Neisseria meningitidis, and Campylobacter jejuni was MHBCA containing 2% laked horse blood. The medium used for Haemophilus influenzae and Branhamella (Moraxella) catarrhalis was HTM as recommended by the NCCLS. Cultures of these fastidious bacteria were incubated at 35° C. in a 5% CO2 atmosphere. […] The medium used for Bacteroides fragilis was Wilkins Chalgren broth and growth was allowed under an anaerobic atmosphere at 35° C. for 48 hours.

S. aureus MRSA COL = experiment: MIC broth microdilution (NCCLS); type: cell-based, Staphylococcus aureus
Procedure: as §1, with “hours. […]” for “hours.”

E. faecium ATCC 35667 = experiment: MIC broth microdilution (NCCLS); type: cell-based, Enterococcus faecium
Procedure: as §1

M. smegmatis ATCC 19420 = experiment: MIC broth microdilution (NCCLS), fastidious bacteria; type: cell-based, Mycobacterium smegmatis; conditions: Mycolicibacterium smegmatis, ATCC19420, read after 48 hours
Procedure: as §1

S. aureus ATCC 29213 = experiment: MIC broth microdilution (NCCLS); type: cell-based, Staphylococcus aureus
Procedure: as §1

S. typhimurium ATCC14028 = experiment: MIC broth microdilution (NCCLS); type: cell-based, Salmonella typhimurium; conditions: Salmonella enterica; S. typhimurium ATCC14028; read-out: MIC
Procedure: as §1

E. faecalis ATCC 29212 = experiment: MIC broth microdilution (NCCLS); type: cell-based, Enterococcus faecalis
Procedure: as §1

E. faecium VanA = experiment: MIC broth microdilution, antibiotic resistant strain panel; type: cell-based; conditions: Enterococcus faecium
Procedure: as §1
(§2) Finally, compounds were also tested against populations of various clinical strains (antibiotic resistant strain panel, TABLE 1).

[2] = tested on: Y. enterocolytica ATCC 23715; experiment: MIC broth microdilution (NCCLS); type: cell-based, Yersinia enterocolytica
Procedure: as §1

E. coli ATCC 25922 = experiment: MIC broth microdilution (NCCLS); type: cell-based, Escherichia coli
Procedure: as §1

[3] = tested on: S. epidermidis ATCC 12228; experiment: MIC broth microdilution (NCCLS); type: cell-based, Staphylococcus epidermidis
Procedure: as §1

A. baumannii ATCC 19606 = experiment: MIC broth microdilution (NCCLS); type: cell-based, Acinetobacter baumannii
Procedure: as §1

MRSA strain Sa220c = experiment: MIC broth microdilution, antibiotic resistant strain panel; type: cell-based, Staphylococcus aureus; conditions: multi-resistant MRSA strain Sa220c
Procedure: as §1, §2

MRSA strain Sa211c = experiment: as above; type: cell-based, Staphylococcus aureus; conditions: multi-resistant MRSA strain Sa211c
Procedure: as §1, §2

MRSA strain Sa248c = experiment: as above; type: cell-based, Staphylococcus aureus; conditions: multi-resistant MRSA strain Sa248c
Procedure: as §1, §2

MRSA strain Sa249c = experiment: as above; type: cell-based, Staphylococcus aureus; conditions: multi-resistant MRSA strain Sa249c
Procedure: as §1, §2

MRSA strain Sa228c = experiment: as above; type: cell-based, Staphylococcus aureus; conditions: multi-resistant MRSA strain Sa228c
Procedure: as §1, §2

MRSA strain Sa224c = experiment: as above; type: cell-based, Staphylococcus aureus; conditions: multi-resistant MRSA strain Sa224c
Procedure: as §1, §2

MRSA strain Sa253c = experiment: as above; type: cell-based, Staphylococcus aureus; conditions: multi-resistant MRSA strain Sa253c
Procedure: as §1, §2

MRSA strain Sa212c = experiment: as above; type: cell-based, Staphylococcus aureus; conditions: multi-resistant MRSA strain Sa212c
Procedure: as §1, §2

[4] = tested on: S. saprophyticus ATCC 15305; experiment: Minimal Bactericidal Concentration (MBC); type: cell-based; conditions: Staphylococcus saprophyticus, ATCC15305
Procedure: Minimal Bactericidal Concentration (MBC). After the microtiter plates were read for the determination of the MIC, a 10-μl sample of each clear well (at least 5 wells without visible growth) was applied onto TSA plates for viable counts determination.
Petri dishes were incubated at 35° C. for exactly 24 h and bacterial colonies were counted.

MRSA strain Sa234c = experiment: MIC broth microdilution, antibiotic resistant strain panel; type: cell-based, Staphylococcus aureus; conditions: multi-resistant MRSA strain Sa234c
Procedure: as §1, §2

[5] = Staphylococcus saprophyticus, ATCC15305, S. saprophyticus ATCC 15305, read-out: MIC
[6] = Staphylococcus aureus, MRSA, S. aureus MRSA COL, read-out: MIC
[7] = Enterococcus faecium, ATCC35667, E. faecium ATCC 35667, read-out: MIC
[8] = Staphylococcus aureus, ATCC29213, S. aureus ATCC 29213, read-out: MIC
[9] = Enterococcus faecalis, ATCC29212, E. faecalis ATCC 29212, read-out: MIC
[10] = Staphylococcus epidermidis, ATCC12228, S. epidermidis ATCC 12228, read-out: MIC
[11] = Staphylococcus aureus, read-out: MIC

Q: With `NC(=O)N/N=C/c1ccc([N+](=O)[O-])o1` [Nitrofurazone] as the compound, how does the MIC [1, 5] read?
A: Its MIC is 8 µg/mL (≈ 40.4 µM).

Q: What about the MIC (S. aureus MRSA COL; [6]) of the same compound?
A: Its MIC is 8 to 16 µg/mL (≈ 40.4 to 80.8 µM).

Q: What about the MIC (E. faecium ATCC 35667; E. faecium ATCC 35667) of the same compound?
A: Its MIC is greater than 64 µg/mL.

Q: What about the MIC (E. faecium ATCC 35667; [7]) of the same compound?
A: Its MIC is 128 µg/mL (≈ 646 µM).

Q: And the MIC (M. smegmatis ATCC 19420)?
A: Its MIC is 64 µg/mL (≈ 323 µM).

Q: And the MIC (S. aureus ATCC 29213; [8])?
A: Its MIC is 16 µg/mL (≈ 80.8 µM).

Q: And the MIC (S. typhimurium ATCC14028)?
A: Its MIC is 8 µg/mL (≈ 40.4 µM).

Q: What about the MIC (E. faecalis ATCC 29212; [9]) of the same compound?
A: The MIC was 64 µg/mL (≈ 323 µM).

Q: What about the MIC (E. faecium VanA; multi-resistant E. faecium VanA, read-out: MIC) of the same compound?
A: The MIC was 64 µg/mL (≈ 323 µM).

Q: What about the MIC ([2]; Yersinia, ATCC23715, read-out: MIC) of the same compound?
A: The MIC was 64 µg/mL (≈ 323 µM).

Q: And the MIC (E. coli ATCC 25922; Escherichia coli, ATCC25922, E. coli ATCC 25922 (Reference), read-out: MIC)?
A: Its MIC is 8 to 16 µg/mL (≈ 40.4 to 80.8 µM).

Q: And the MIC [3, 10]?
A: Its MIC is 8 µg/mL (≈ 40.4 µM).

Q: And the MIC (A. baumannii ATCC 19606; Acinetobacter baumannii, ATCC19606, read-out: MIC)?
A: The MIC was 32 µg/mL (≈ 162 µM).

Q: How did the MIC [1, 5] turn out when `Cc1onc(-c2ccccc2)c1C(=O)N[C@@H]1C(=O)N2[C@@H]1SC(C)(C)[C@@H]2C(=O)O` [Oxacillin] was run?
A: The MIC was 1 µg/mL (≈ 2.49 µM).

Q: And the MIC (S. aureus MRSA COL; Staphylococcus aureus, MRSA)?
A: Its MIC is greater than 128 µg/mL.

Q: And the MIC (S. aureus MRSA COL; [6])?
A: The MIC was 512 µg/mL (≈ 1280 µM).

Q: What about the MIC (E. faecium ATCC 35667; [7]) of the same compound?
A: Its MIC is 32 µg/mL (≈ 79.7 µM).

Q: What about the MIC (S. aureus ATCC 29213; [8]) of the same compound?
A: Its MIC is 0.12 to 0.25 µg/mL (≈ 0.299 to 0.623 µM).

Q: What about the MIC (E. faecalis ATCC 29212; [9]) of the same compound?
A: Its MIC is 8 to 16 µg/mL (≈ 19.9 to 39.9 µM).

Q: And the MIC (MRSA strain Sa220c; [11])?
A: Its MIC is 8 to 16 µg/mL (≈ 19.9 to 39.9 µM).

Q: And the MIC (MRSA strain Sa211c; [11])?
A: Its MIC is 16 to 32 µg/mL (≈ 39.9 to 79.7 µM).

Q: What about the MIC (MRSA strain Sa248c; [11]) of the same compound?
A: Its MIC is 512 µg/mL (≈ 1280 µM).

Q: And the MIC (MRSA strain Sa249c; [11])?
A: Its MIC is 512 µg/mL (≈ 1280 µM).

Q: What about the MIC (MRSA strain Sa228c; [11]) of the same compound?
A: Its MIC is 128 µg/mL (≈ 319 µM).

Q: What about the MIC (MRSA strain Sa224c; [11]) of the same compound?
A: The MIC was 32 to 64 µg/mL (≈ 79.7 to 159 µM).

Q: What about the MIC (MRSA strain Sa253c; [11]) of the same compound?
A: Its MIC is 1020 µg/mL (≈ 2550 µM).

Q: What about the MIC (MRSA strain Sa212c; [11]) of the same compound?
A: The MIC was 16 µg/mL (≈ 39.9 µM).

Q: And the MIC [3, 10]?
A: The MIC was 0.12 µg/mL (≈ 0.299 µM).

Q: For `CN[C@H](CC(C)C)C(=O)N[C@H]1C(=O)N[C@@H](CC(N)=O)C(=O)N[C@H]2C(=O)N[C@H]3C(=O)N[C@H](C(=O)N[C@H](C(=O)O)c4cc(O)cc(O)c4-c4cc3ccc4O)[C@H](O)c3ccc(c(Cl)c3)Oc3cc2cc(c3O[C@@H]2O[C@H](CO)[C@@H](O)[C@H](O)[C@H]2O[C@H]2C[C@](C)(N)[C@H](O)[C@H](C)O2)Oc2ccc(cc2Cl)[C@H]1O` [Vancomycin], which MIC ([1]; Staphylococcus saprophyticus, ATCC15305) is on record?
A: The MIC was 1 µg/mL (≈ 0.69 µM).

Q: What about the MIC (S. aureus MRSA COL; Staphylococcus aureus, MRSA) of the same compound?
A: The MIC was 1 to 2 µg/mL (≈ 0.69 to 1.38 µM).

Q: What about the MIC (E. faecium ATCC 35667; Enterococcus faecium, ATCC35667) of the same compound?
A: The MIC was 0.5 µg/mL (≈ 0.345 µM).

Q: And the MIC (S. aureus ATCC 29213; Staphylococcus aureus, ATCC29213)?
A: Its MIC is 0.5 to 2 µg/mL (≈ 0.345 to 1.38 µM).

Q: What about the MIC (E. faecalis ATCC 29212; Enterococcus faecalis, ATCC29212) of the same compound?
A: Its MIC is 2 µg/mL (≈ 1.38 µM).

Q: And the MIC (E. faecium VanA)?
A: Its MIC is greater than 128 µg/mL.

Q: And the MBC [4]?
A: Its MBC is 1 µg/mL (≈ 0.69 µM).

Q: What about the MIC ([3]; Staphylococcus epidermidis, ATCC12228) of the same compound?
A: Its MIC is 1 to 2 µg/mL (≈ 0.69 to 1.38 µM).

Q: Which results are given for Gentamicin?
A: MIC ([1]; S. saprophyticus ATCC 15305): 0.06 µg/mL; MIC (S. aureus MRSA COL; S. aureus MRSA COL): 0.5 µg/mL; MIC (E. faecium ATCC 35667; E. faecium ATCC 35667): 4 to 16 µg/mL; MIC (S. aureus ATCC 29213; S. aureus ATCC 29213): 0.5 to 2 µg/mL; MIC (E. faecalis ATCC 29212; E. faecalis ATCC 29212): 4 to 16 µg/mL; MIC [2]: 2 µg/mL; MIC (MRSA strain Sa220c): 0.5 µg/mL; MIC (MRSA strain Sa211c): 1 µg/mL; MIC (MRSA strain Sa248c): >128 µg/mL; MIC (MRSA strain Sa249c): >128 µg/mL; MIC (MRSA strain Sa228c): 32 µg/mL; MIC (MRSA strain Sa234c): 1 µg/mL; MIC (MRSA strain Sa224c): 0.25 µg/mL; MIC (MRSA strain Sa253c): >128 µg/mL; MIC (MRSA strain Sa212c): 0.25 µg/mL; MIC (E. coli ATCC 25922; E. coli ATCC 25922 (Reference)): 0.5 to 2 µg/mL; MIC ([3]; S. epidermidis ATCC 12228): 0.06 to 0.25 µg/mL; MIC (A. baumannii ATCC 19606): 32 µg/mL
